Measured values reported in patent publication US7645740B2, “Peptide sequence found in Laminin 5 for treating skin impairments” (Laboratoires d'Anjou Centre National de la Recherche …, priority 2004, dated 2010).

Tests used:
[1] = system: normal human keratinocytes; test: Cell adhesion test to immobilized peptides, normal human keratinocytes; type: cell-based; conditions: 0 to 10 micrograms immobilized peptide, 10^5 cells per well, 1 hour 37° C., absorbance 570 nm
Protocol: (§1) Dose-dependent cell adhesion of normal human keratinocytes to various peptides 1, 2 and 3. The peptides were immobilized in 96-well plates at the concentrations given on the abscissa. 10^5 cells were deposited in each well and plates were incubated at 37° C. for 1 hour. After washing, attached cells were fixed and cell adhesion was measured as described in the methodology section.
(§2) Peptides 1, 2 and 3 were used for the cell adhesion experiments. A range of 7 decreasing concentrations (100 micrograms/ml, 50 micrograms/ml, 25 micrograms/ml, 12.5 micrograms/ml, 6.25 micrograms/ml, 3.125 micrograms/ml and 1.562 micrograms/ml) was made up by successive dilution in PBS (Phosphate Buffer Saline, KH2PO4 1.54 mM; Na2HPO4 1.42 mM; NaCl-131 mM) using a starting solution at a concentration of 1 mg/ml. These solutions were immediately distributed onto a 96-well culture plate (Greinher, Dutscher, Brumath, France) at a rate of 100 μl per well. Plates were then placed at +4° C. for 16 to 18 hours. The solutions were then removed by turning the plates and each well was saturated with a 1% PBS-BSA solution (bovine serum albumin). Three additional wells without the substrate underwent the same treatment and were used as blanks.
(§3) Epithelial cells were detached from the culture dishes using a trypsin/EDAT solution (0.05-0.02%) then suspended in DMEM medium without additives for the cell lines and in KBM-2 without additive for human keratinocytes. The number of seeded cells per well is given in the graphs (50,000 to 100,000 cells per well).
(§4) After cell seeding, the multi-well plates were placed in an incubator at 37° C. under 5% CO2. After incubation for 30 to 60 minutes, cells were observed under a phase contrast microscope in order to verify that the test was conducted correctly. The adhesion medium was then removed and each well was washed in a sterile PBS solution to remove non-adhering cells. The remaining cells, attached to the substrate, were then fixed using a solution of 1% glutaraldehyde in PBS for 15 minutes. The glutaraldehyde solution as removed and the cells were stained with a crystal violet solution diluted to 1% in distilled water for 30 minutes.
(§5) After rinsing in water several times, cells were permeabilized by means of a 0.02% triton solution for 15 minutes in order to solubilize the crystal violet. Absorbances were read at 570 nm using an ELISA plate reader (MR500, Dynatech, Guernsey, Channel Islands). Each experimental point was carried out in triplicate. The blank value represented the mean absorbance of 3 control wells (BSA). This was subtracted from each of the optical density values for the experimental points. We then calculated the mean for the three absorbance values for each of the triplicate samples.
(§6) The results are presented in the form of a graph with the absorbance values on the ordinate and the various substrate concentrations on the abscissa. Attached cells were photographed by phase contrast microscopy.
Freshly isolated normal human keratinocytes were used in a second experiment. As the basal keratinocytes of the epidermis are in direct contact with LN-5 in the skin, it was necessary to test their adhesion capacity to the peptide in question. Human keratinocytes were obtained from a foreskin biopsy (surgery waste, Pavillon T-Bis, Eduard Herriot Hospital). […]

[2] = system: HT1080 cells (human fibrosarcoma); test: Cell adhesion test to immobilized peptides, HT1080; type: cell-based; conditions: HT1080, 0 to 10 micrograms immobilized peptide, 8×10^4 cells per well, 1 hour 37° C., absorbance 570 nm
Protocol: as §1, with “cell line HT1080” for “normal human keratinocytes”, “8×10^4” for “10^5”
Dose-dependent cell adhesion of HT1080 cells to various peptide TALRIRATYGEY (SEQ ID NO. 1). The peptides were immobilized in 96-well plates in the quantities given on the abscissa. 8×10^4 cells and 15×10^4 cells were deposited in each well and plates were incubated at 37° C. for 1 hour. After washing, attached cells were fixed and cell adhesion was measured as described in the methodology section. Cells were observed by phase contrast microscopy then photographed. Bar =50 μm
as §2, §3, §4
as §5, with “This was subtracted from each of the optical density values for the experimental points.” left out
The results are presented in the form of a graph with the absorbance values on the ordinate and the various substrate concentrations on the abscissa. […]
A second approach was taken in order to determine the minimum quantity of active peptide and the number of adhering cells was increased in order to obtain a confluent cell network. […]

[3] = system: HBL100 cells (human mammary epithelium); test: Cell adhesion test to immobilized peptides, HBL100; type: cell-based; conditions: HBL100, 0 to 10 micrograms immobilized peptide, 8×10^4 cells per well, 1 hour 37° C., absorbance 570 nm
Protocol: as §1, with “cell line HBL100” for “normal human keratinocytes”, “8×10^4” for “10^5”
as §2, §3, §4, §5, §6
(§7) The following cells from epithelial cell lines were used initially (commonly used in preliminary studies on cell adhesion): • line HT1080 cells (human fibrosarcoma), American Type Culture Collection CCL-121. • line HB100 cells (human mammary epithelium), American Type Culture Collection HTB-124. • line A431 cells (skin epitheliods), American Type Culture Collection CRL-1555.

[4] = system: A431 cells (skin epitheloids); test: Cell adhesion test to immobilized peptides, A431; type: cell-based; conditions: A431, 0 to 10 micrograms immobilized peptide, 8×10^4 cells per well, 1 hour 37° C., absorbance 570 nm
Protocol: as §1, with “cell line A431” for “normal human keratinocytes”, “8×10^4” for “10^5”
as §2, §3, §4, §5, §6, §7

[5] = system: NHKs; test: Cell adhesion of NHKs to peptides co-immobilized with laminin 5; type: cell-based, human; conditions: laminin 5 fixed quantity 0.2 mg, 50,000 cells per well, percentage of LN5 alone
Protocol: Peptides 1, 2 and 3 (variable quantities indicated) and laminin 5 (fixed quantity 0.2 mg) were co-immobilized in 96-well plates. 5×104 NHKs were deposited in each well and plates were incubated at 37° C. for 1 hour. After washing, attached cells were fixed and cell adhesion was measured as described in the methodology section. Cell adhesion in the presence of the peptide is given as a percentage of cell adhesion obtained with laminin 5 alone. Cells were observed by phase contrast microscopy then photographed. Bar=50 μm.
(§8) A decreasing range of LN5 (prepared in the laboratory) and COL4 (BD Biosciences, Le Pont de Claix, France) quantities was made up by successive dilution in PBS. These solutions were immediately distributed into a 96-well culture plate (Costar) at a rate of 100 μl per well. The experiment was conducted in exactly the same way as the experiment described in example 2. The results are given in the form of a graph with the absorbance values representing adhesion on the ordinate and the various substrate concentrations on the abscissa. Attached cells were photographed by phase contrast microscopy.
In order to analyse the effect of the peptide on cell adhesion to DEJ proteins, peptide TALRIRATYGEY (SEQ ID NO.1) (peptide 1) was co-immobilized with LN5 (FIG. 14) and COL4 (FIG. 15). The fixed quantity of matrix protein (LN5 and COL4) and the variable quantity of peptide are given on the graph (FIGS. 14 and 15). Peptides 2 and 3 (described in example 1) were used as controls for the experiment. The adhesion tests were carried out with NHK under the same conditions as the experiment given in FIG. 13 (50,000 cells per well). A peptide-free control representing 100% adhesion (LN5 only and COL4 only) was used to allow analysis of the effect of adhesion relating to the presence of the peptide. The results are given as a percentage of this control.

[6] = system: NHKs; test: Cell adhesion of NHKs to laminin 5 and collagen IV substrates; type: cell-based, human; conditions: 0 to 2 micrograms per well, 5×10^4 NHKs per well, 1 hour 37° C.
Protocol: (A) Diagrammatic representation of laminin 5 and collagen IV in the dermo-epidermal junction (DEJ). (B) Dose-dependent cell adhesion of NHKS to laminin 5 and collagen IV. laminin 5 and collagen IV were fixed to 96-well plates in the quantities given on the abscissa. 5×10^4 NHKs were deposited in each well and plates were incubated at 37° C. for 1 hour. After washing, attached cells were fixed and cell adhesion was measured as described in the methodology section.
as §8

Row | Substance | cell adhesion to immobilized peptide [1] | cell adhesion to immobilized peptide [2] | cell adhesion to immobilized peptide [3] | cell adhesion to immobilized peptide [4] | effect on adhesion of NHKs to LN5 (co-immobilized) [5] | adhesion of NHKs to substrate protein [6]
1 | DVKNLENIRDNL (Human laminin 5) [Peptide 3, control peptide from the terminal carboxy end of the gamma 2 chain of laminin 5, position 1169-1180, reference compound] | did not lead to any adhesion | did not lead to any adhesion | did not lead to any adhesion | did not lead to any adhesion | do not modify adhesion | –
2 | LN5: laminin 5, dermo-epidermal junction glycoprotein, prepared in the laboratory, used as adhesion substrate | – | – | – | – | – | much better substrate
3 | GLTKTYTFRLNE (Human laminin 5) [Peptide 2, control peptide from the gamma 2 chain of laminin 5, position 309-321, reference compound] | did not lead to any adhesion | did not lead to any adhesion | did not lead to any adhesion | did not lead to any adhesion | do not modify adhesion | –
